Tests used:
[1] = target: BsuCA1 (BsCA1); type: biochemical, Brucella suis; settings: read-out: KI (nM) ^* / BsuCA1^b
[2] = target: BsuCA2 (BsCA2); type: biochemical, Brucella suis; settings: read-out: KI (nM) ^* / BsuCA2^b

| SMILES | Ki [1] [nM] | Ki [2] [nM] |
| --- | --- | --- |
| CCOC(=O)CCc1c(C)nn(-c2ccncc2S(N)(=O)=O)c1C [compound 16, 16] | 41 | 706 |
| NS(=O)(=O)c1cnccc1N1CCN(Cc2ccccc2)CC1 [compound 10, 10] | 34 | 97 |
| NS(=O)(=O)c1cnccc1N1CCC(Cc2ccccc2)CC1 [compound 12, 12] | 40 | – |
| Cc1nn(-c2ccncc2S(N)(=O)=O)c(C)c1C [compound 14, 14] | 45 | – |
| CCc1cc(CC)n(-c2ccncc2S(N)(=O)=O)n1 [compound 17, 17] | – | 420 |
| CCCCc1c(C)nn(-c2ccncc2S(N)(=O)=O)c1C [compound 15, 15] | 47 | – |
| Cc1cc(C)n(-c2ccncc2S(N)(=O)=O)n1 [compound 13, 13] | 38 | 780 |
| NS(=O)(=O)c1cnccc1N1CCN(Cc2ccc3c(c2)OCO3)CC1 [compound 11, 11] | 36 | 336 |
